Measured values from patent US8101766B2, “Crystalline form of a biphenyl compound” (Theravance, Inc., priority 2004, dated 2012).

Key:
[1] = system: His-induced bronchoconstriction; test: Bronchoprotection in guinea pig model of histamine-induced bronchoconstriction; type: in vivo; conditions: inhalation
Procedure: (§1) Duration of Bronchoprotection in Guinea Pig Models of Acetylcholine-Induced or Histamine-Induced Bronchoconstriction
(§2) To isolate muscarinic antagonist activity in the acetylcholine-induced bronchoconstriction model, the animals were administered propanolol, a compound that blocks β receptor activity, prior to the administration of acetylcholine. Duration of bronchoprotection in the histamine-induced bronchoconstriction model reflects β2 adrenergic receptor agonist activity.
(§3) Groups of 6 male guinea pigs (Duncan-Hartley (HsdPoc:DH) Harlan, Madison, Wis.) weighing between 250 and 350 g were individually identified by cage cards. Throughout the study, animals were allowed access to food and water ad libitum.
(§4) Test compounds were administered via inhalation over 10 minutes in a whole-body exposure dosing chamber (R&S Molds, San Carlos, Calif.). […] This value was measured gravimetrically by comparing pre- and post-nebulization weights of the filled nebulizer.
(§5) The bronchoprotective effects of test compounds administered via inhalation were evaluated using whole body plethysmography at 1.5, 24, 48 and 72 hours post-dose. […]
(§6) Once it was determined that baseline values were within the range of 0.3-0.9 mL/cm H2O for compliance and within the range of 0.1-0.199 cm H2O/mL per second for resistance, the pulmonary evaluation was initiated. […]

[2] = system: MCh-induced bronchoconstriction; test: Bronchoprotection in guinea pig model of acetylcholine-induced bronchoconstriction; type: in vivo; conditions: inhalation
Procedure: as §1, §2, §3, §4, §5, §6

β2 adrenergic receptor = β2 adrenergic receptor (Homo sapiens, UniProt P07550); test: Whole-cell cAMP Flashplate assay with lung epithelial cell line (BEAS-2B) endogenously expressing human β2 adrenergic receptor; type: cell-based; parameters: a cell line expressing endogenous levels of the β2 adrenergic receptor, a human lung epithelial cell line (BEAS-2B) was used; host or cells: BEAS-2B human lung epithelial cells; conditions: BEAS-2B human lung epithelial cell line, endogenous receptor
β2 adrenergic receptor, sequence (P07550 whole entry): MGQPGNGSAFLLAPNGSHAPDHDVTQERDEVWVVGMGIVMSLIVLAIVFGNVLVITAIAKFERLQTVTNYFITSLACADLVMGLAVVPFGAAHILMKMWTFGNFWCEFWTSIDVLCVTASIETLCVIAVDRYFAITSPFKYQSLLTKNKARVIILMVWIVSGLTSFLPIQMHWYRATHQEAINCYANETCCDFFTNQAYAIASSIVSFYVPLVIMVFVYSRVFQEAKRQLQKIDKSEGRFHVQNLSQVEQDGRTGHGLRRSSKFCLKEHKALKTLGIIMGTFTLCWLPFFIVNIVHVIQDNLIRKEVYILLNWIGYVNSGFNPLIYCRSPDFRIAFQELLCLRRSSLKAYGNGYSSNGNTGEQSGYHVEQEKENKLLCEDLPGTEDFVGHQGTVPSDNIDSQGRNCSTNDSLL
Procedure: On the day of the assay, cells were rinsed with PBS, lifted by scraping with 5 mM EDTA in PBS, and counted. Cells were pelleted by centrifugation at 1,000 rpm and re-suspended in stimulation buffer pre-warmed to 37° C. at a final concentration of 600,000 cells/mL. Cells were used at a final concentration of 100,000 to 120,000 cells/well in this assay. […] Test compounds were tested in the assay at 11 different concentrations, ranging from 10 μM to 10 pM. Reactions were incubated for 10 min at 37° C. and stopped by addition of 100 μL of ice-cold detection buffer. Plates were sealed, incubated over night at 4° C. and counted the next morning in a Topcount scintillation counter (Packard BioScience Co., Meriden, Conn.). […] Data were analyzed by nonlinear regression analysis with the GraphPad Prism Software package (GraphPad Software, Inc., San Diego, Calif.) using the 4-parameter model for sigmoidal dose-response.

COc1cc(NC(=O)CCN2CCC(OC(=O)Nc3ccccc3-c3ccccc3)CC2)c(Cl)cc1CNC[C@H](O)c1ccc(O)c2[nH]c(=O)ccc12 [compound of formula I, biphenyl-2-ylcarbamic acid 1-[2-(2-chloro-4-{[(R)-2-hydroxy-2-(8-hydroxy-2-oxo-1,2-dihydroquinolin-5-yl)ethylamino]methyl}-5-methoxyphenylcarbamoyl)ethyl]piperidin-4-yl ester]
bronchoprotective effect against His-induced bronchoconstriction [1]: dose-dependent bronchoprotective effect
bronchoprotective effect against MCh-induced bronchoconstriction [2]: dose-dependent bronchoprotective effect
EC50 (β2 adrenergic receptor): < 10 nM
